Assay results: patent US20080125447A1, “Combination Therapy” (priority 2004, published 2008)

Test system: Calu-6 tumour xenograft
Test: Calu-6 tumour xenograft in vivo solid tumour model
Details: once-daily oral, 28 days

Compound: COc1cc2c(Oc3ccc4[nH]c(C)cc4c3F)ncnc2cc1OCCCN1CCCC1 [AZD2171, 4-(4-fluoro-2-methyl-1H-indol-5-yloxy)-6-methoxy-7-(3-(pyrrolidin-1-yl)propoxy)quinazoline]
- inhibition of Calu-6 tumour xenograft growth (1.5 mg/kg/day, P<0.01 one-tailed t test): 49%
- inhibition of Calu-6 tumour xenograft growth (3 mg/kg/day, P<0.0001 one-tailed t test): 69%
- inhibition of Calu-6 tumour xenograft growth (6 mg/kg/day, P<0.0001 one-tailed t test): 91%
